A value given as a limit tells only on which side of the number the result lay.

The source of these data is publication PMC11375702, “Early Preclinical Studies of Ergosterol Peroxide and Biological Evaluation of Its Derivatives” (ACS Omega, 2024).

One experiment deals with T1, CYP2C19 (Homo sapiens, UniProt P33261).
T1 construct: from tissue; host or cells: pooled human liver microsomes
The experiment is described as follows: Microsomal CYP inhibition assay, CYP2C19. The experiment is classed as in vitro ADME. Particulars: pooled human liver microsomes, probe mephenytoin; read-out: CYP-2C19 inhibition. The method, then: (§1) To assess potential cardiotoxicity, we performed the human ether-go-go-related gene (hERG) inhibition assay. […] Briefly, EP was tested at six concentrations (cumulative concentration–response). […] For hepatotoxicity determination, we performed the microsomal CYP inhibition assay. Briefly, EP was incubated at seven increasing concentrations with pooled human liver microsomes. […] The supernatants were analyzed by LC-MS/MS.

For experiment [1], the system named is MDA-MB-231-GFP mammary fat pad tumors. Briefly: In vivo efficacy, MDA-MB-231-GFP mammary fat pad tumors. Details: species or system mouse. Particulars: 100 mg/kg BW i.p. 3 times per week. The method, then: Finally, to test the effect of EP on breast cancer progression in vivo, we established mammary fat pad tumors from GFP-tagged TNBC MDA-MB-231 cancer cells as we have previously described.[47] Mice were injected with TNBC cells diluted in Matrigel in their fourth mammary fat pad, and when tumors were palpable, the mice were injected via intraperitoneal (i.p.) 3 times per week with vehicle (10% ethanol) or 100 mg/kg BW of EP. […] The progression of the tumor was quantified by fluorescence image analysis obtained on a weekly basis.
Female (3-week-old) severe combined immunodeficient (SCID) Hairless Outbred (SHO) mice (Charles River Laboratories, Wilmington, MA) were segregated into two groups (n = 3 mice/group) and housed under specific pathogen-free conditions. The mice received an autoclaved AIN 76-A phytoestrogen-free diet (Tek Global, Harlan Teklad, Madison, WI) and water ad libitum. Cell inoculations were performed under isoflurane inhalation as we previously described[47] to produce orthotopic tumors as described in the provided reference.[54] […] GFP-tagged cells were monitored weekly for the duration of the study using an iBox Explorer^2 (UVP, CA) animal imaging system. […] Tumor fluorescence intensities were analyzed using ImageJ software (National Institutes of Health, Bethesda, MD). […]

For a further experiment, the target named is T2, hERG cardiac ion channel (Homo sapiens, UniProt Q12809).
T2 construct: expressed in transfected cells; host or cells: HEK-293
Briefly: hERG channel inhibition assay (QPatch HTX, HEK-293). Format: cell-based. The conditions noted are these: hERG tail-current; read-out: hERG pIC50 (converted). Here is the method:
as §1
(In general: Block of hERG is tested as a sign of cardiac risk.)

T1 sequence (P33261 whole entry): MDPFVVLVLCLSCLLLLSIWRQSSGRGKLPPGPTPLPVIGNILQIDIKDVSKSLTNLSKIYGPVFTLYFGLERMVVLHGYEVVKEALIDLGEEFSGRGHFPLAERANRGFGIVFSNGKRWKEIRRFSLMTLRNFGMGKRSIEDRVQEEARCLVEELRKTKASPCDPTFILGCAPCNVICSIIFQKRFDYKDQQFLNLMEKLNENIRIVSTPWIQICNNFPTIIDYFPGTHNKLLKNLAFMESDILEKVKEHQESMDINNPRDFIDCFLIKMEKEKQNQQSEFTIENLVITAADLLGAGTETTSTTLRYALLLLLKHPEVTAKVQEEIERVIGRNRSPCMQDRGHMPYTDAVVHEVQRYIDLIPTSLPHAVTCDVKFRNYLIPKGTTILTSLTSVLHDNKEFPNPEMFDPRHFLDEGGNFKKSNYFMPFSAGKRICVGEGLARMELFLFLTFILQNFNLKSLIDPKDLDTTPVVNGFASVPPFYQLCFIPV
T2 sequence (Q12809 whole entry): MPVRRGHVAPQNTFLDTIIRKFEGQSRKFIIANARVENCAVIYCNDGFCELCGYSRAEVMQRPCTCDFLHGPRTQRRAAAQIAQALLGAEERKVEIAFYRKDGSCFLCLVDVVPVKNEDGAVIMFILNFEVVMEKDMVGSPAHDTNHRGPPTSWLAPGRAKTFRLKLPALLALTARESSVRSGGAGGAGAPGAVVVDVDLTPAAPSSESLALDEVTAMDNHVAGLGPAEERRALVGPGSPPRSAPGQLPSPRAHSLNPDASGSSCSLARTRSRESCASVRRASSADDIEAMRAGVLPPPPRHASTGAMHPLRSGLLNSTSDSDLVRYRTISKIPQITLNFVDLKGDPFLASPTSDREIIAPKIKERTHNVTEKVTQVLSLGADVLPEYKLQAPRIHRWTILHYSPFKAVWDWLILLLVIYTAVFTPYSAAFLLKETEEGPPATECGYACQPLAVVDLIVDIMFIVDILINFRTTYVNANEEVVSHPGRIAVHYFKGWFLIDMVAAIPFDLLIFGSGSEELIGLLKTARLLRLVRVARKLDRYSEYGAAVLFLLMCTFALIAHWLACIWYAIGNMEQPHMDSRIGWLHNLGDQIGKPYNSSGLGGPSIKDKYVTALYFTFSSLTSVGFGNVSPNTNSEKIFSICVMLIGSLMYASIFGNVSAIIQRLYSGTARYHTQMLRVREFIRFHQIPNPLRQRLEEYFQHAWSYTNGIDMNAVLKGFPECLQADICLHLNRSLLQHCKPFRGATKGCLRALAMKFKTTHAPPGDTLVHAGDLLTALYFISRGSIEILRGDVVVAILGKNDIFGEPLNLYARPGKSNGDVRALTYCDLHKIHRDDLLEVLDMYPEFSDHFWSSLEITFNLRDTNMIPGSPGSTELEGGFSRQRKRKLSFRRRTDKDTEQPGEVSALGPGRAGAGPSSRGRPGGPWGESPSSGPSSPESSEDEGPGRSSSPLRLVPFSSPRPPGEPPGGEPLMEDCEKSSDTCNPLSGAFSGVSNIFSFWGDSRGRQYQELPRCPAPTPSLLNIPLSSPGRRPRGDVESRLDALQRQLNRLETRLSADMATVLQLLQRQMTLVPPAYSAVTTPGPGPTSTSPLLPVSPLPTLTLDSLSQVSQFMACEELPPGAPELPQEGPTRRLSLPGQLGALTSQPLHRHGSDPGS

As for `CC(C)[C@@H](C)/C=C/[C@@H](C)[C@H]1CC[C@@H]2[C@]1(C)CC[C@H]1[C@]23C=C[C@]2(C[C@@H](O)CC[C@]12C)OO3` [Compound 2, Ergosterol peroxide], the IC50 on CYP2C19 is 19.9 µM; at hERG cardiac ion channel, over 30.2 µM. Also, the tumor growth result in experiment [1] (by week 3, P < 0.05) was “decreases tumor growth”. In experiment [1] (end of study, vs vehicle), this molecule returned a tumor size reduction of about 17%.
